In the assay the target is Sushi domains (SD1/2) protein. Description: Fluorescence polarization (FP) competition assay with AJAP-1probe, calculated Ki. In kind it is binding. On the procedure:
Fluorescence polarization (FP). FP assay was employed to determine the binding affinity of peptides in flat bottom black 384-well plates (Corning Life Science) using a Safire2 plate reader (Tecan). All experiments were conducted in 1×PBS (pH 7.4) containing 1% bovine serum albumin (BSA) at rt. The fluorescence polarization values were measured using excitation/emission wavelengths of 530/580 nm. The instrumental Z-factor was adjusted to obtain the maximum fluorescence intensity and the G-factor was calibrated to give an initial millipolarization value of 20 mP. All FP assays including saturation or competition experiments were performed using 25 nM of TAMRA labeled peptides as probes. For saturation assay, the millipolarization values were measured after mixing of probes with 12 serial 1 to 1 diluted concentrations of Sushi domains (SD1/2) protein. All experiments were performed in triplicate and the data were plotted to the one-site binding model using GraphPad Prism 9 to calculate the Kd of probes. […] The experiments were performed at least in triplicate and the data were fitted to the sigmoidal dose response curve using GraphPad Prism 9 to obtain the IC50 of peptides. The Ki values were calculated according to Nikolovska-Coleska et al^310.

[1] abbreviates: Table 14, CPPs tagged peptides, read-out: Ki (nM) mean ± SEM.
Setting [2] is: Table 13, peptides for affinity maturation, read-out: Ki (nM) mean ± SEM.
[3] abbreviates: Table 6, elongation and truncation scan of PIANP binding epitope, read-out: Ki (nM) mean ± SEM.
[4] abbreviates: Table 7, Ala-, D-amino acids and N-methylation scans of APPWT, read-out: Ki (nM) mean ± SEM.

Read-outs that look alike come from different tables or passages of the source. Non-standard residues stand in square brackets, D forms with d. Residues, ends and D or L forms follow the SMILES beside them. 1Nal = N[C@@H](Cc1cccc2ccccc12)C(=O)O; Sar = CNCC(=O)O

As to `CC(=O)N[C@@H](CCC(=O)O)C(=O)N[C@@H](CC(=O)O)C(=O)N[C@@H](CC(=O)O)C(=O)N[C@@H](CO)C(=O)N[C@@H](Cc1cccc2ccccc12)C(=O)N[C@H](C(=O)N[C@@H](Cc1c[nH]c2ccccc12)C(=O)N[C@@H](Cc1c[nH]c2ccccc12)C(=O)NCC(=O)NCC(=O)N[C@@H](C)C(=O)N[C@@H](CC(=O)O)C(=O)N[C@H](C(=O)N[C@@H](CC(=O)O)C(N)=O)[C@@H](C)O)C(C)C` (Ac-EDDS[1Nal]VWWGGADTD-NH2), the Ki (Table 16, ncAAs incorporated peptides, read-out: Ki (nM) mean ± SEM) is 69 ± 3 nM. For `CC[C@H](C)[C@H](NC(=O)[C@H](Cc1c[nH]c2ccccc12)NC(=O)[C@H](CC(=O)O)NC(=O)[C@H](CC(=O)O)NC(=O)[C@H](CC(=O)O)NC(=O)[C@H](CCC(=O)O)NC(C)=O)C(=O)N[C@@H](CC(=O)O)C(=O)N[C@@H](Cc1c[nH]c2ccccc12)C(=O)N[C@@H](Cc1ccc(O)cc1)C(=O)N[C@@H](CC(=O)O)C(=O)N[C@@H](CO)C(=O)N[C@@H](CC(=O)O)C(=O)N[C@@H](CC(=O)O)C(=O)N[C@@H](CC(=O)O)C(=O)N[C@@H](CCC(=O)O)C(=O)N[C@@H](C)C(=O)N[C@@H](C)C(=O)N[C@@H](C)C(=O)N[C@@H](CCCCN)C(=O)N[C@@H](CCCNC(=N)N)C(=O)N[C@@H](CCCNC(=N)N)C(=O)N[C@@H](CCCNC(=N)N)C(=O)N[C@@H](CCCNC(=N)N)C(=O)N[C@@H](CCCNC(=N)N)C(=O)N[C@@H](CCCNC(=N)N)C(=O)N[C@@H](CCCNC(=N)N)C(=O)N[C@@H](CCCNC(=N)N)C(N)=O` [Peptide 16-RL-R8] (Ac-EDDDWIDWYDSDDDEAAAKRRRRRRRR-NH2), the Ki was 100 ± 4 nM (CPP tagged peptides overview, SD1/2 binding affinity, mean ± SEM, n ≥ 3, read-out: Ki) and 99.5 ± 4 nM under setting [1]. Take `CC[C@H](C)[C@H](NC(=O)[C@H](Cc1ccccc1)NC(=O)[C@H](CCC(=O)O)NC(=O)[C@@H](NC(=O)[C@H](CCC(=O)O)NC(C)=O)[C@@H](C)O)C(=O)N[C@@H](C)C(=O)N[C@@H](Cc1c[nH]c2ccccc12)C(=O)NCC(=O)N[C@@H](C)C(=O)N[C@H](C(=O)NCC(=O)N[C@@H](CC(=O)O)C(=O)N[C@@H](CCC(=O)O)C(=O)N[C@@H](CC(=O)O)C(N)=O)[C@@H](C)O` [ETEFIAWGATGDED] (Ac-ETEFIAWGATGDED-NH2): where the note is “Table 8, Ala-, D-amino acids and N-methylation scans of AJAP-1WT, read-out: Ki (nM) mean ± SEM”, the Ki was 291 ± 6 nM. On to `CC(=O)N[C@@H](CCC(=O)O)C(=O)N[C@@H](CC(=O)O)C(=O)N[C@@H](CC(=O)O)C(=O)N[C@@H](CO)C(=O)N[C@@H](Cc1ccc(O)cc1)C(=O)N[C@H](C(=O)N[C@@H](Cc1c[nH]c2ccccc12)C(=O)N[C@@H](Cc1c[nH]c2ccccc12)C(=O)NCC(=O)NCC(=O)N[C@@H](C)C(=O)N[C@@H](CC(=O)O)C(=O)N[C@H](C(=O)N[C@@H](CC(=O)O)C(N)=O)[C@@H](C)O)C(C)C` (Ac-EDDSYVWWGGADTD-NH2), for which the Ki (Table 10, deep mutational scanning validation variants of APPWT, read-out: Ki (nM) mean ± SEM) was 191 ± 10 nM. For `CC[C@H](C)[C@H](NC(=O)[C@H](Cc1ccccc1)NC(=O)[C@H](CCC(=O)O)NC(=O)[C@@H](NC(=O)[C@H](CCC(=O)O)NC(C)=O)[C@@H](C)O)C(=O)N[C@@H](C)C(=O)N[C@@H](Cc1c[nH]c2ccccc12)C(=O)N[C@@H](Cc1ccc(O)cc1)C(=O)NCC(=O)N1CCC[C@H]1C(=O)N[C@@H](C)C(=O)N[C@@H](CC(=O)O)C(=O)N[C@H](C(=O)N[C@@H](CC(=O)O)C(N)=O)[C@@H](C)O` (Ac-ETEFIAWYGPADTD-NH2), the Ki under setting [2] is 182 ± 2 nM. Consider `CC[C@H](C)[C@H](NC(=O)[C@H](C)NC(=O)[C@H](Cc1c[nH]c2ccccc12)NC(=O)[C@@H]1CCCN1C(C)=O)C(=O)N[C@H](C(=O)N[C@@H](Cc1c[nH]c2ccccc12)C(N)=O)C(C)C` [PWAIVW] (Ac-PWAIVW-NH2), for which the Ki under setting [3] is 706 ± 16 nM. `CC[C@H](C)[C@H](NC(=O)[C@H](C)NC(=O)[C@H](Cc1c[nH]c2ccccc12)NC(=O)[C@@H]1CCCN1C(C)=O)C(=O)N[C@H](C(=O)N[C@@H](Cc1c[nH]c2ccccc12)C(=O)NCC(=O)N1CCC[C@H]1C(=O)N[C@H](C(N)=O)[C@@H](C)O)C(C)C` (Ac-PWAIVWGPT-NH2): under setting [3], the Ki is 716 ± 6 nM.

Consider `CC[C@H](C)[C@H](NC(=O)[C@H](C)NC(=O)[C@H](Cc1c[nH]c2ccccc12)NC(C)=O)C(=O)N[C@H](C(=O)N[C@@H](Cc1c[nH]c2ccccc12)C(=O)NCC(=O)N1CCC[C@H]1C(=O)N[C@H](C(=O)N[C@H](C(=O)N[C@@H](CO)C(=O)N[C@@H](CCCNC(=N)N)C(=O)N[C@@H](CCC(=O)O)C(=O)N[C@@H](CC(=O)O)C(=O)NCC(=O)NCC(N)=O)C(C)C)[C@@H](C)O)C(C)C` (Ac-WAIVWGPTVSREDGG-NH2), for which the Ki (Table 3, SPOT hit validation and previously reported peptides, read-out: Ki (nM) mean ± SEM) was 1350 ± 49 nM. In the case of `CC(=O)N[C@@H](CCC(=O)O)C(=O)N[C@@H](CC(=O)O)C(=O)N[C@@H](CC(=O)O)C(=O)N[C@@H](CO)C(=O)N[C@@H](CC(=O)O)C(=O)N[C@H](C(=O)N[C@@H](Cc1c[nH]c2ccccc12)C(=O)N[C@@H](Cc1c[nH]c2ccccc12)C(=O)N[C@@H](Cc1ccc(O)cc1)C(=O)NCC(=O)N(C)CC(=O)N[C@@H](C)C(=O)N[C@@H](CC(=O)O)C(=O)N[C@H](C(=O)N[C@@H](CC(=O)O)C(N)=O)[C@@H](C)O)C(C)C` (Ac-EDDSDVWWYG[Sar]ADTD-NH2), the Ki under setting [2] was 164 ± 2 nM. Take `CC(=O)N[C@@H](CCC(=O)O)C(=O)N[C@@H](CC(=O)O)C(=O)N[C@@H](CC(=O)O)C(=O)N[C@@H](CO)C(=O)N[C@@H](CC(=O)O)C(=O)N[C@H](C(=O)N[C@@H](Cc1c[nH]c2ccccc12)C(=O)N[C@@H](Cc1c[nH]c2ccccc12)C(=O)N(C)CC(=O)NCC(=O)N[C@@H](C)C(=O)N[C@@H](CC(=O)O)C(=O)N[C@H](C(=O)N[C@@H](CC(=O)O)C(N)=O)[C@@H](C)O)C(C)C` (Ac-EDDSDVWW[Sar]GADTD-NH2): the Ki under setting [4] was 18900 ± 554 nM. Take `CC[C@H](C)[C@H](NC(=O)[C@H](Cc1c[nH]c2ccccc12)NC(=O)[C@H](CC(=O)O)NC(=O)[C@H](CC(=O)O)NC(=O)[C@H](CC(=O)O)NC(=O)[C@H](CCC(=O)O)NC(=O)[C@H](CCCNC(=N)N)NC(=O)[C@H](CCCNC(=N)N)NC(=O)[C@H](CCCNC(=N)N)NC(=O)[C@H](CCCNC(=N)N)NC(=O)[C@H](CCCNC(=N)N)NC(=O)[C@H](CCCNC(=N)N)NC(C)=O)C(=O)N[C@@H](CC(=O)O)C(=O)N[C@@H](Cc1c[nH]c2ccccc12)C(=O)NCC(=O)N1CCC[C@H]1C(=O)N[C@H](C(=O)N[C@@H](CO)C(=O)N[C@@H](CC(=O)O)C(=O)N[C@@H](CC(=O)O)C(=O)N[C@@H](CC(=O)O)C(N)=O)[C@@H](C)O` (Ac-RRRRRREDDDWIDWGPTSDDD-NH2): under setting [1], the Ki was 43.4 ± 1 nM.

Consider `CC(=O)N[C@@H](CCC(=O)O)C(=O)N[C@@H](C)C(=O)N[C@@H](CC(=O)O)C(=O)N[C@@H](CO)C(=O)N[C@@H](CC(=O)O)C(=O)N[C@H](C(=O)N[C@@H](Cc1c[nH]c2ccccc12)C(=O)N[C@@H](Cc1c[nH]c2ccccc12)C(=O)NCC(=O)NCC(=O)N[C@@H](C)C(=O)N[C@@H](CC(=O)O)C(=O)N[C@H](C(=O)N[C@@H](CC(=O)O)C(N)=O)[C@@H](C)O)C(C)C` (Ac-EADSDVWWGGADTD-NH2), for which the Ki under setting [4] was 1240 ± 65 nM. Take `CC(=O)N[C@@H](CCC(=O)O)C(=O)N[C@@H](CCC(=O)O)C(=O)N[C@@H](CC(=O)O)C(=O)N[C@@H](CC(=O)O)C(=O)N[C@@H](CO)C(=O)N[C@@H](CC(=O)O)C(=O)N[C@H](C(=O)N[C@@H](Cc1c[nH]c2ccccc12)C(=O)N[C@@H](Cc1c[nH]c2ccccc12)C(=O)NCC(=O)NCC(=O)N[C@@H](C)C(N)=O)C(C)C` (Ac-EEDDSDVWWGGA-NH2): the Ki (Table 4, truncation and elongation scans of APP epitope, read-out: Ki (nM) mean ± SEM) was 1020 ± 18 nM. As to `CC[C@H](C)[C@H](NC(=O)[C@H](Cc1ccccc1)NC(=O)[C@H](Cc1c[nH]cn1)NC(=O)[C@@H](NC(=O)[C@H](CCC(=O)O)NC(C)=O)[C@@H](C)O)C(=O)N[C@@H](C)C(=O)N[C@@H](Cc1c[nH]c2ccccc12)C(=O)NCC(=O)N1CCC[C@H]1C(=O)N[C@H](C(=O)NCC(=O)N[C@@H](CC(=O)O)C(=O)N[C@@H](CCC(=O)O)C(=O)N[C@@H](CC(=O)O)C(N)=O)[C@@H](C)O` [ETHFIAWGPTGDED], the Ki (Table 11, deep mutational scanning validation variants of AJAP-1WT, read-out: Ki (nM) mean ± SEM) is 58 ± 4 nM. As for `CC[C@H](C)[C@H](NC(=O)[C@H](Cc1ccccc1)NC(=O)[C@H](Cc1c[nH]c2ccccc12)NC(=O)[C@@H]1CCCN1C(C)=O)C(=O)N[C@H](C(=O)N[C@@H](Cc1c[nH]c2ccccc12)C(=O)NCC(=O)N1CCC[C@H]1C(=O)N[C@H](C(=O)N[C@H](C(=O)N[C@@H](CO)C(=O)N[C@@H](CCCNC(=N)N)C(=O)N[C@@H](CCC(=O)O)C(=O)N[C@@H](CC(=O)O)C(N)=O)C(C)C)[C@@H](C)O)C(C)C` [PWFIVWGPTVSRED] (Ac-PWFIVWGPTVSRED-NH2), the Ki (Table 12, deep mutational scanning validation variants of PIANPWT, read-out: Ki (nM) mean ± SEM) was 461 ± 10 nM. As for `CC[C@H](C)[C@H](NC(=O)[C@H](C)NC(=O)[C@H](Cc1c[nH]c2ccccc12)NC(=O)[C@@H]1CCCN1C(C)=O)C(=O)N[C@H](C(=O)N[C@@H](Cc1c[nH]c2ccccc12)C(=O)NCC(=O)N1CCC[C@H]1C(=O)N[C@H](C(=O)N[C@H](C(=O)N[C@@H](CO)C(=O)N[C@@H](CCCNC(=N)N)C(=O)N[C@@H](CCC(=O)O)C(=O)N[C@@H](CC(=O)O)C(=O)NCC(=O)NCC(=O)N[C@@H](CC(=O)O)C(N)=O)C(C)C)[C@@H](C)O)C(C)C` (Ac-PWAIVWGPTVSREDGGD-NH2), the Ki under setting [3] was 716 ± 6 nM.
